assay: gradient 5% acetonitrile 3 min, to 50% in 2 min, to 85% in 15 min, held 3 min, 100 µL/min; settings: column: Zorbax Extend-C18 2.1 x 50 mm; eluents: water / acetonitrile, 0.1% formic acid
How it was run: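 Values are retention times taken from adduct peaks that software picked and an analyst inspected. The pure standards were run as mixtures of ~100 molecules on HPLC linked to a quadrupole time-of-flight mass spectrometer, in positive and negative ionization mode. A Zorbax Extend-C18 column (2.1 × 50 mm, 1.8 μm) was used at 100 μL/min with water and acetonitrile, each including 0.1% formic acid.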

SMILES | RP-LC retention time [s]
COc1ccc(N2CCN(C(=O)c3cc4c(s3)CCN(C(C)=O)C4)CC2)cc1 | 674
CCN(Cc1cc(Nc2nc(C)cn3c(-c4cn[nH]c4)cnc23)sn1)C(C)(C)CO | 682
CC1=NS(=O)(=O)c2cccnc2N1c1cccc(Br)c1 | 825
Cc1ccc(NC(=O)N2CCC(n3cnc4ccc(F)cc4c3=O)CC2)cc1F | 842
O=C1CC2(CCCC2)CC(=O)N1CCCCNCC1COc2ccccc2O1 (centres undefined) | 758
Cc1ccc(S(=O)(=O)N(CCN2CCCCC2C)CC(=O)N2CCNCC2)c(C)c1 (centres undefined) | 588
Cc1nn(C)c(C)c1CNC(=O)C1CCN(c2nnc3ccccn23)CC1 | 515
Cc1noc(C2(NC(=O)Cc3ccccc3C)CCCCC2)n1 | 884
CSc1cccc(NC(=O)N2CCN(C3=CC4=NCC(C)N4C=N3)CC2)c1 (centres undefined) | 650
Cn1nccc1-c1cccc(-c2noc(CNS(=O)(=O)c3ccc(Cl)cc3)n2)c1 | 902
COc1cccc(/C=C/C(=O)N2CCC(c3cc(N)on3)CC2)c1 | 716
COCCCNc1c(-c2cccc(F)c2)nc2sc(C(N)=O)c(C)n12 | 741
CCCn1cc(C(=O)NCCN2CCOCC2)c2cccnc21 | 586
O=C1C2N=NN(c3ccccc3)C2C(=O)N1c1ccccc1 (centres undefined) | 907
CCC1c2nccn2CCCN1C(=O)CCc1c(C)noc1C (centres undefined) | 623
O=C(c1cc(-c2cccnc2)n[nH]1)N1CCCC(C(=O)N2CCN(C(=O)c3ccco3)CC2)C1 (centres undefined) | 556
CC(C)CC(NC(=O)C1CCC(C)CC1)C(=O)N1CCN(c2ccccn2)CC1 (centres undefined) | 693
CCN(CC)CCCC(C)Nc1cc(Cl)cc2nc3ccc(OC)cc3cc12 (centres undefined) | 609
Cc1cc(=O)n(CC(=O)NCc2ccc(F)c(Cl)c2)c(N)n1 | 863
Cc1nc2cc(N3CCC(C(=O)Nc4ccc5c(c4)OCCO5)CC3)cnc2nc1C | 697
Cc1nc([C@@H]2CN(S(=O)(=O)c3ccc(Cl)s3)C[C@H]2C(N)=O)n[nH]1 | 631
CCOC(=O)Cc1csc(NC(=O)CNC(=O)c2c[nH]c3ccccc23)n1 | 670
CC(=O)O[C@]1(C(C)=O)CC[C@H]2[C@@H]3CCC4=CC(=O)CCC4=C3[C@@H](c3ccc(N(C)C)cc3)C[C@@]21C | 874
Cc1ccc2cc(CCC(=O)NCCCN3CCOCC3)c(=O)[nH]c2c1 | 577
CCCN1CCN(C2CCN(C(=O)C(CC)CC)CC2)C1=O | 727
CCOCCCNC(=O)N1CCN(Cc2nc3cc(C(=O)N(C)C)ccc3n2CC)CC1 | 581
Cn1cc(-c2ccncc2)cc1C(=O)N1CCN(c2cccc(Cl)c2)CC1 | 679

SMILES | RP-LC retention time [s]
N#Cc1ccc(C(=O)NC(c2ccccc2)c2nnc(N3CCCCC3)o2)cc1 (centres undefined) | 740
Cc1ccc(Nc2c(-c3ccc(N(C)C)cc3)nc3cnccn23)cc1Cl | 958
CN(C)CCNC(=O)C1CCN(c2nc3ccc(-c4ccccc4F)nc3s2)CC1 | 658
Cc1nc(-c2csc(S(=O)(=O)NC3CCCCCC3)c2)sc1C | 1150
COc1cc2c(cc1O)[C@@H](Cc1ccc(O)c(Oc3ccc(C[C@@H]4c5cc(OC)c(OC)cc5CCN4C)cc3)c1)N(C)CC2 | 639
O=C(Nc1nnc(SCc2cccc(F)c2)s1)C1CCCCC1 | 1010
CCN1CCN(c2cc(C(=O)O)c3cc(NC(=O)C4CCC4)ccc3n2)CC1 | 565
NC(=O)C1CCN(C(=O)C2CCN(C(=O)C3CC(=O)N(c4ccc(F)cc4)C3)CC2)CC1 (centres undefined) | 599
NC(=O)c1ccc(-c2nc(-c3ccc4c(c3)OCO4)c(-c3ccccn3)[nH]2)cc1 | 647
Cc1cccc(CNc2cc(-n3cccn3)ncn2)c1 | 648
CCc1cc(C(=O)Nc2cc(C)cc(C)c2)nc2ccnn12 | 1140
CC(=O)N1CCc2cc(C(=O)NC(C)C)ccc21 | 644
COc1cccc(C2CC(c3ccc(Br)cc3)=NC3(CCN(C)CC3)N2)c1O (centres undefined) | 620
Cc1cc(Cl)ccc1S(=O)(=O)N1CCc2c(c(CN3CCCC3)nn2C)C1 | 679
CNC(=O)N1CCC(C2CCN(C(=O)C3CC=CC3)C2)CC1 (centres undefined) | 646
CCSc1nnnn1-c1ccc(NC(=O)c2ccc3nnsc3c2)cc1 | 838
CCn1nccc1C(=O)N1CCN(c2ncnc3c2CCC3)CC1 | 556
CCn1cc(CCNC(=O)Nc2ccc(Br)cc2F)c2cccnc21 | 838
CCOC(=O)C(Cc1c(C)[nH]c2ccccc12)C(=O)OCC | 1000
COc1cc(NS(=O)(=O)c2ccc3c(c2)-c2oncc2CO3)cc(OC)c1 | 884
Cc1ccccc1NC(=O)C1CCc2nc(N3CCOCC3)ncc2C1 (centres undefined) | 723
Cc1cc(C(=O)N2CCCn3ccnc3C2C2CCCC2)n[nH]1 (centres undefined) | 584
O=C(CCC1CCN(c2cc(NC3CC3)ncn2)CC1)N1CCN(c2ncccn2)CC1 | 615
Cn1c(C(=O)N2CCCC(C(=O)N3CCN(c4ccccc4)CC3)C2)cc2sccc21 (centres undefined) | 892
CC(C)S(=O)(=O)c1cc2c(cc1NC(=O)c1ccc(Cl)cc1)n(C)c(=O)n2C | 936
CCOc1ccc(-n2c(=O)c3sccc3n(Cc3nc(-c4ccc(CC)cc4)no3)c2=O)cc1 | 1170
Cc1cccn2cc(C(=O)N3CCN(c4ccc(Cl)cc4)CC3)nc12 | 946

The next lines start with the values.

RP-LC retention time [s] | SMILES
611 | CCCNC(=O)C1CCN(c2ccc(SCC(=O)Nc3ccccc3OC)nn2)CC1
694 | Cc1nn(-c2ccccc2)c2c1N(CCCC(=O)N1CCOCC1)C(=O)CS2
945 | CCCCN1C(=O)CN(S(=O)(=O)c2ccccc2)CC1(C)C(=O)NCc1ccc(F)cc1 (centres undefined)
834 | COc1ccc(CNC(=O)C2(C)CCN(C(=O)Nc3ccccc3C(F)(F)F)CC2)cc1
1180 | Cc1ccc(S(=O)(=O)N2CCC(C)CC2)cc1-c1nnc(-c2ccccc2)o1
696 | CC(C)NC(=O)NCC1Cn2cccc2C(=O)N1Cc1ccccc1 (centres undefined)
893 | COc1ccc(NC(=O)COc2ccccc2)c2ccccc12
838 | CC(=O)N1CCc2ccccc2C1C(=O)NCc1ccc(C(F)(F)F)cc1 (centres undefined)
975 | COCCn1cc2c3c(cccc31)CN(C(=O)Cc1ccccc1Cl)CC2
714 | O=C(NC1CCN(c2cc(-c3ccc(F)cc3)[nH]n2)C1)c1ccccc1F (centres undefined)
728 | O=C(CNC(=O)c1ccccc1)NCCSc1ccc(C(=O)Nc2ccccc2)cn1
1140 | COc1ccc(N2N=NC3C(=O)N(c4ccc(F)cc4)C(=O)C32)cc1OC (centres undefined)
870 | CCOC(=O)c1nc(Nc2cc(C)ccc2C)c2ccccc2n1
610 | CCN(C(=O)c1nc(C)n(C2CCN(S(C)(=O)=O)CC2)c1C)c1ccccc1
909 | CC(C)NC(=O)N1CCCC(c2cccc(C(=O)NCc3ccccc3Cl)c2)C1 (centres undefined)
1200 | CCCn1c(=O)c(C)nc2cc(-c3noc(-c4ccc(F)cc4)n3)ccc21
662 | Cc1oc(-c2[nH]ncc2C(=O)N2CCOCC2)cc1S(=O)(=O)Nc1ccccc1F
570 | CCC(=O)Nc1ccc(S(=O)(=O)NCCc2ccc(N(C)C)cc2)c(C)c1

RP-LC retention time [s] | SMILES
1040 | CCn1nc(C)n2cc(S(=O)(=O)N3CCC(Cc4ccccc4)CC3)cc2c1=O
736 | O=C(CC1CCCC1)NCCc1nc2cccnc2n1-c1ccccc1
610 | CCNC(=O)C1Cc2cc(C(F)(F)F)ccc2N2CCN(Cc3ccc(F)cc3)CC12 (centres undefined)
942 | COc1cccc(CNC(=O)C2(C)CCCN(C(=O)Nc3ccccc3Br)C2)c1 (centres undefined)
735 | CCNc1nc(C)cc(N2CCN(S(=O)(=O)c3ccc(Cl)cc3)CC2)n1
608 | COc1ccc(C(=O)Nc2c(-c3ccccc3)nc3ccccn23)cc1OC
615 | O=C(NCCc1c[nH]c2ccccc12)C1CCN(c2nc3ccccc3[nH]2)CC1
624 | CCCS(=O)(=O)Nc1cccc(-c2cn3cccc(C)c3n2)c1
1300 | CCCCn1c(=O)c2ccccc2n(Cc2nc(-c3ccc(Br)cc3)no2)c1=O
753 | CCc1ccc(S(=O)(=O)N2CCC3(CC2)NCCN=C3NCc2ccc(F)cc2)cc1
987 | CCn1cc(-c2nc(C(=O)NCc3ccccc3F)cs2)c2cccnc21
876 | COc1ccc(NC(=O)N2CCCC2c2nc(-c3ccccc3)no2)cc1 (centres undefined)
869 | CC(C)CNC(=O)CCc1nc2ccccc2n(CC(=O)NC(C)CCc2ccccc2)c1=O (centres undefined)
782 | O=C(NCc1ccc(Br)cc1)C1CCN(C(=O)C2Sc3ccccc3NC2=O)CC1 (centres undefined)
770 | CN1c2cc(Cl)ccc2C(=O)NC12CCN(C(=O)Nc1ccccc1F)CC2
641 | CS(=O)(=O)N1CCc2nn(Cc3ccccc3)c(=O)n2CC1
678 | CN(C)CCCNc1oc(-c2ccc(F)cc2)nc1S(=O)(=O)c1ccccc1
